Experiments:
Experiment in all cases: relative viability (nuclei count vs DMSO), 5 days (fraction); higher = more cells survive
Linsitinib + Lapatinib = compound: C[C@]1(O)C[C@@H](c2nc(-c3ccc4ccc(-c5ccccc5)nc4c3)c3c(N)nccn32)C1 [Linsitinib] + CS(=O)(=O)CCNCc1ccc(-c2ccc3ncnc(Nc4ccc(OCc5cccc(F)c5)c(Cl)c4)c3c2)o1 [Lapatinib] (partner 2 µM)
Method in brief: (§1)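 Nuclei were stained with Hoechst during a one-step fixation (final 0.05% Triton X-100, 1% formaldehyde, 1 ug/ml Hoechst) carried out 5 days after dosing, then counted on 4× images. The cells, lung cancer lines in 1536-well plates, had been dosed by pin tool the day after seeding with one drug alone or a fixed anchor-drug dose plus five library-drug doses (not always all listed) in √10 steps. Relative viability is the nuclei count in treated wells divided by that in vehicle wells, and each value is the median of duplicate plates.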

Linsitinib + Vorinostat = compound: C[C@]1(O)C[C@@H](c2nc(-c3ccc4ccc(-c5ccccc5)nc4c3)c3c(N)nccn32)C1 [Linsitinib] + O=C(CCCCCCC(=O)Nc1ccccc1)NO [Vorinostat] (partner 1 µM)
Method in brief: as §1

Ispinesib + Palbociclib = compound: Cc1ccc(C(=O)N(CCCN)[C@@H](c2nc3cc(Cl)ccc3c(=O)n2Cc2ccccc2)C(C)C)cc1 [Ispinesib] + CC(=O)c1c(C)c2cnc(Nc3ccc(N4CCNCC4)cn3)nc2n(C2CCCC2)c1=O [Palbociclib] (partner 0.5 µM)
Method in brief: as §1

Ispinesib + Linsitinib = compound: Cc1ccc(C(=O)N(CCCN)[C@@H](c2nc3cc(Cl)ccc3c(=O)n2Cc2ccccc2)C(C)C)cc1 [Ispinesib] + C[C@]1(O)C[C@@H](c2nc(-c3ccc4ccc(-c5ccccc5)nc4c3)c3c(N)nccn32)C1 [Linsitinib] (partner 1 µM)
Method in brief: as §1

Cell Line	relative viability (Linsitinib + Lapatinib; first compound 0.01 µM)	relative viability (Linsitinib + Lapatinib; first compound 0.03162 µM)	relative viability (Linsitinib + Lapatinib; first compound 0.1 µM)	relative viability (Linsitinib + Lapatinib; first compound 0.3162 µM)	relative viability (Linsitinib + Lapatinib; first compound 1 µM)	relative viability (Linsitinib + Vorinostat; first compound 0.01 µM)	relative viability (Linsitinib + Vorinostat; first compound 0.03162 µM)	relative viability (Linsitinib + Vorinostat; first compound 0.1 µM)	relative viability (Linsitinib + Vorinostat; first compound 0.3162 µM)	relative viability (Linsitinib + Vorinostat; first compound 1 µM)	relative viability (Ispinesib + Palbociclib; first compound 0.001 µM)	relative viability (Ispinesib + Palbociclib; first compound 0.003162 µM)	relative viability (Ispinesib + Palbociclib; first compound 0.01 µM)	relative viability (Ispinesib + Palbociclib; first compound 0.03162 µM)	relative viability (Ispinesib + Palbociclib; first compound 0.1 µM)	relative viability (Ispinesib + Linsitinib; first compound 0.001 µM)	relative viability (Ispinesib + Linsitinib; first compound 0.003162 µM)	relative viability (Ispinesib + Linsitinib; first compound 0.01 µM)	relative viability (Ispinesib + Linsitinib; first compound 0.03162 µM)	relative viability (Ispinesib + Linsitinib; first compound 0.1 µM)
HCC-366	1.14	0.8	1.07	0.326	0.874	0.41	0.328	0.324	0.218	0.0911	0.289	0.448	0.497	0.5	0.0937	1.13	0.595	1.04	0.719	0.167
LU99A	0.953	0.951	0.952	0.377	0.57	0.492	0.466	0.524		0.291	0.398	0.44	0.481	0.315	0.285	0.573	0.587	0.509	0.336	0.167
HOP-62	1.06	1.15	1.01		0.631	0.699	0.57	0.682		0.36	0.448	0.548	0.617	0.516	0.388	0.99	1.14	0.952	1.05	0.742
HCC-15	0.919	0.807	0.883	0.2	0.612	0.822	0.752	0.763	0.633	0.705	0.518	0.847	0.899	0.644	0.418	0.998	1.06	1.06	0.663	0.415
HARA	0.598	0.746	0.739	0.671	0.329	0.51	0.513	0.648	0.347	0.351	0.299	0.262	0.284	0.256	0.225	0.993	0.85	1.32	1.07	0.207
SK-MES-1	0.434	0.456	0.467	0.462	0.435	1.08	0.991	1.14	0.637	0.779	0.277	0.345	0.319	0.154	0.224	1.1	1.09	1.21	1.11	0.261
NCI-H1355	1.04	0.983	0.865	0.547	0.546	0.66	0.65	0.574	0.444	0.311	0.397	0.425	0.436	0.373	0.331	0.82	0.794	0.893	0.795	0.561
NCI-H727	0.716	0.724	0.863	0.428	0.377	0.978	1.4	1.08	0.82	0.927	0.565	0.66		0.678	0.617		0.303	0.235	0.244	0.223
NCI-H520	0.934	0.462	0.979		0.929	0.802	0.689	0.722		0.695	0.186	0.223	0.221	0.21	0.167	1.13	0.957	1.08	0.245	0.232
NCI-H838	0.963	0.929	0.883	0.286	0.591	0.704	0.645	0.652	0.517	0.545	0.23	0.23	0.262	0.212	0.137	1.09	1.17	1.29	0.92	0.256
HCC-44	1.02	0.859	0.983	0.357	0.63	1.02	1.01	1.03	0.734	1.01	0.996	0.985	0.978	0.999	0.948	0.702	0.746	0.812	0.698	0.248
LK-2	0.899	0.995	0.844	0.657	0.695	0.237	0.335	0.178	0.275	0.176	0.687	0.821	0.824	0.743	0.188	0.805	0.328	0.521	0.435	0.267
HCC-827	0.208	0.197	0.17		0.224	0.207	0.829	0.799		0.639	0.496	0.49	0.58	0.543	0.477	0.955	1.01	1.01	0.959	0.892
SW 1573	1.18	1.3	1.05	0.939	0.933	0.934	0.575	0.786	0.26	0.518	0.385	0.404	0.32	0.18	0.218	0.934	0.743	0.983	0.801	0.453
NCI-H2023	0.821	0.411	0.895	0.0717	0.408	0.71	0.327	0.903	0.196	0.398	0.462	0.392	0.383	0.145	0.138	0.79	0.74	0.627	0.439	0.149
EPLC-272H	0.977	0.948	0.999		0.736	0.533	0.383	0.548	0.297	0.484	0.341	0.306	0.329	0.328	0.149	1.17	1.53	1.48	1.05	1.06
SK-LU-1	0.889	0.902	0.987		0.815	0.71	0.557	0.788	0.75	0.742	0.323	0.412	0.379	0.312	0.325	1.15	1.32	1.43	0.932	0.382
